Patent US10894798B2, “Substituted dihydropyrrolopyrazole derivative” (UBE INDUSTRIES, LTD., priority 2015, dated 2021)

What was measured:
[1] = tested on: human large intestine cancer cell line (HCT-116); test: Human large intestine cancer (HCT-116) cell growth inhibition test; format: cell-based; conditions: HCT-116, 72 h, culture for 3 days, sulforhodamine B, read-out: GI50 value, HCT-116 cell growth inhibition
Method in brief: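 HCT-116 cells were seeded at 0.5 to 2.0×10^3 cells/well in McCoy's 5A with 10% FBS and dosed with compound at 0.1% final DMSO after overnight culture. Growth was measured by sulforhodamine B absorbance after 3 days. GI50 was calculated from the inhibition rate at each concentration.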

CDK7 = biological target: T1, CDK7 (Homo sapiens, UniProt P50613); test: CDK7 enzyme inhibition test; format: biochemical; conditions: [γ-33P]ATP, MBP substrate, 60 min preincubation at 25°C; Ki=IC50/(1+S/Km); read-out: Ki value of CDK7 inhibitory activity
T1 construct: purchased Carna Biosciences, Inc. 04-108
Method in brief: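 Commercial human CDK7 with myelin basic protein substrate in HEPES pH 7.4 buffer with DTT, Triton X-100, MgCl2; compound preincubated 60 min at 25° C, then reaction run 20 min at 30° C after adding [γ-^33P]ATP (500 μM solution). TCA-precipitated ^33P-MBP counted by scintillation; IC50 converted to Ki via Ki=IC50/(1+S/Km).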

PLK1 = biological target: T2, PLK1 (Homo sapiens, UniProt P53350); test: PLK1 enzyme (polo-like kinase) inhibition test; format: biochemical; conditions: [γ-33P]ATP, casein substrate; Ki=IC50/(1+S/Km); read-out: Ki value of PLK1 inhibitory activity
T2 construct: purchased Carna Biosciences, Inc. 05-157
Method in brief: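 Recombinant PLK1 phosphorylates casein with [γ-^33P]ATP in MOPS buffer (pH 7.0) containing DTT and magnesium acetate, 20 min at 30° C. Reaction stopped with TCA; washed precipitate counted by liquid scintillation. IC50 for inhibition of ^33P incorporation into casein, converted to Ki via Ki=IC50/(1+S/Km).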

CDK2 = biological target: T3, CDK2 (Homo sapiens, UniProt P24941); test: CDK2 enzyme inhibition test; format: biochemical; conditions: [γ-33P]ATP, MBP substrate; Ki=IC50/(1+S/Km); read-out: Ki value of CDK2 inhibitory activity
T3 construct: purchased Invitrogen Corp. PV3267
Method in brief: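 Commercial CDK2 phosphorylated MBP with [γ-33P]ATP (500 μM solution before mixing) in HEPES pH 7.4 buffer with DTT, Triton X-100 and MgCl2 for 20 min at 30 °C. TCA-precipitated 33P-MBP was counted by scintillation to give the IC50. Ki = IC50/(1+S/Km), with S the ATP concentration in the reaction.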

T2 sequence (P53350 whole entry): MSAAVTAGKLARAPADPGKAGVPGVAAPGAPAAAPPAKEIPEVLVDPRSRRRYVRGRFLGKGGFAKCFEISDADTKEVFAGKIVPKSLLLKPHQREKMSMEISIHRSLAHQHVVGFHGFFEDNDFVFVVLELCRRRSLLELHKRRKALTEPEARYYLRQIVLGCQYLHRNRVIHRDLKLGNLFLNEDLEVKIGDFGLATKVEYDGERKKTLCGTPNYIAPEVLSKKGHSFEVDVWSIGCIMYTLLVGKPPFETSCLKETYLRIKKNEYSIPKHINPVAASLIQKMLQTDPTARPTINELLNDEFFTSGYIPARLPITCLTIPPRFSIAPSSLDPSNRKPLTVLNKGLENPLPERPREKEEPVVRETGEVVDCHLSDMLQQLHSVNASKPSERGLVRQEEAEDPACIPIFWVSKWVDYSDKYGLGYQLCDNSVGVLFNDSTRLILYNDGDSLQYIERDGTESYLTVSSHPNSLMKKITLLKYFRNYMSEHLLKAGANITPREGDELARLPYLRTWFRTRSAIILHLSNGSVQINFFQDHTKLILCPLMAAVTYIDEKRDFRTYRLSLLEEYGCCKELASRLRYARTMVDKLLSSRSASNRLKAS
T1 sequence (P50613 whole entry): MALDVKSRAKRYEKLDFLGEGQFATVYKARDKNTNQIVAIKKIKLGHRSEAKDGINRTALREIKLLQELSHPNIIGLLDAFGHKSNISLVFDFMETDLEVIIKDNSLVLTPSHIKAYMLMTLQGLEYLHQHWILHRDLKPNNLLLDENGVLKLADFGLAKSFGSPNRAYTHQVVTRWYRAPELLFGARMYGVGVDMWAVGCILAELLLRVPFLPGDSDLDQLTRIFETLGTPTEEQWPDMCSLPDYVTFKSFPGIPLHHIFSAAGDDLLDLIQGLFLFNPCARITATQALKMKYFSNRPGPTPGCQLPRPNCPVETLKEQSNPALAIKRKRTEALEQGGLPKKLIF
T1 sequence (P51946 whole entry partner): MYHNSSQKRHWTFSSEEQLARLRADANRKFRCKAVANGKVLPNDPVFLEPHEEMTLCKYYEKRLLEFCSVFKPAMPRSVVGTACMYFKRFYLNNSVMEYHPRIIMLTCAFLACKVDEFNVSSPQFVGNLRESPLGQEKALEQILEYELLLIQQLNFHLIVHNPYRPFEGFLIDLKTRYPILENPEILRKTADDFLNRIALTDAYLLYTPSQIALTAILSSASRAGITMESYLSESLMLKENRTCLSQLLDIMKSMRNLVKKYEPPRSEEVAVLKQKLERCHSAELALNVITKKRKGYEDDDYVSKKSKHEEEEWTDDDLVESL
T1 sequence (P51948 whole entry partner): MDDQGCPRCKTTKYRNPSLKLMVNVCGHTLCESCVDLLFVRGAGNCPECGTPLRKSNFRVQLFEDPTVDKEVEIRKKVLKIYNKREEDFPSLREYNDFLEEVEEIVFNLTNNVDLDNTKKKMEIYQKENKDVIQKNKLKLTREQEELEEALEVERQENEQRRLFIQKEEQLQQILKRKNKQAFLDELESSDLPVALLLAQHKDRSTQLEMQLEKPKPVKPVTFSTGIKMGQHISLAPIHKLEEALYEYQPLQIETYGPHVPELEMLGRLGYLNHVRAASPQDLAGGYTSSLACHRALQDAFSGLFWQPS

Row | GI50 [1] [µM] | Ki (CDK7) [µM] | Ki (PLK1) [µM] | Ki (CDK2) [µM] | SMILES
1 | ≤ 0.1 | ≤ 0.05 | ≥ 5 | ≥ 1 | CC1(C)c2[nH]nc(NC(=O)C3([Si](C)(C)C)CCC3)c2CN1C(=O)Nc1ccccc1C1CC1 [IV-39, N-(2-Cyclopropylphenyl)-6,6-dimethyl-3-[1-(trimethylsilyl)cyclobutanecarboxamido]-4,6-dihydropyrrolo[3,4-c]pyrazole-5(1H)-carboxamide]
2 | ≤ 0.1 | ≤ 0.05 | ≥ 5 | ≥ 1 | CC(F)(F)c1ccccc1NC(=O)N1Cc2c(NC(=O)C3([Si](C)(C)C)CCC3)n[nH]c2C1(C)C [IV-45, N-[2-(1,1-Difluoroethyl)phenyl]-6,6-dimethyl-3-[1-(trimethylsilyl)cyclobutanecarboxamido]-4,6-dihydropyrrolo[3,4-c]pyrazole-5(1H)-carboxamide]
3 | ≤ 0.1 | ≤ 0.05 | ≥ 5 | ≥ 1 | CC1(C)c2[nH]nc(NC(=O)C3([Si](C)(C)C)CCC3)c2CN1C(=O)Nc1ccsc1 [IV-1045, 6,6-Dimethyl-N-(thiophen-3-yl)-3-[1-(trimethylsilyl)cyclobutanecarboxamido]-4,6-dihydropyrrolo[3,4-c]pyrazole-5(1H)-carboxamide]
4 | ≤ 0.1 | ≤ 0.05 | ≥ 5 | ≥ 1 | Cc1ccc(Cl)cc1NC(=O)N1Cc2c(NC(=O)C3([Si](C)(C)C)CCC3)n[nH]c2C1(C)C [IV-367, N-(5-Chloro-2-methylphenyl)-6,6-dimethyl-3-[1-(trimethylsilyl)cyclobutanecarboxamido]-4,6-dihydropyrrolo[3,4-c]pyrazole-5 (1H)-carboxamide]
5 | ≤ 0.1 | ≤ 0.05 | ≥ 5 | ≥ 1 | Cc1cccc(C)c1NC(=O)N1Cc2c(NC(=O)C3([Si](C)(C)C)CCC3)n[nH]c2C1(C)C [IV-381, N-(2,6-Dimethylphenyl)-6,6-dimethyl-3-[1-(trimethylsilyl)cyclobutanecarboxamido]-4,6-dihydropyrrolo[3,4-c]pyrazole-5(1H)-carboxamide]

Row | SMILES | GI50 [1] [µM] | Ki (CDK7) [µM] | Ki (PLK1) [µM] | Ki (CDK2) [µM]
6 | CC1(C)c2[nH]nc(NC(=O)C3([Si](C)(C)C)CCC3)c2CN1C(=O)Nc1c(Cl)cc(F)cc1Cl [IV-709, N-(2,6-Dichloro-4-fluorophenyl)-6,6-dimethyl-3-[1-(trimethylsilyl)cyclobutanecarboxamido]-4,6-dihydropyrrolo[3,4-c]pyrazole-5(1H)-carboxamide] | ≤ 0.1 | ≤ 0.05 | ≥ 5 | ≥ 1
7 | CC1(C)c2[nH]nc(NC(=O)C3([Si](C)(C)C)CCC3)c2CN1C(=O)Nc1c(Cl)cccc1C(F)(F)F [IV-239, N-[2-Chloro-6-(trifluoromethyl)phenyl]-6,6-dimethyl-3-[1-(trimethylsilyl)cyclobutanecarboxamido]-4,6-dihydropyrrolo[3,4-c]pyrazole-5(1H)-carboxamide] | ≤ 0.1 | ≤ 0.05 | ≥ 5 | ≥ 1
8 | CC1(C)c2[nH]nc(NC(=O)C(C)(C)[Si](C)(C)C)c2CN1C(=O)Nc1c(Cl)cccc1Cl [II-199, N-(2,6-Dichlorophenyl)-6,6-dimethyl-3-[2-methyl-2-(trimethylsilyl)propanamido]-4,6-dihydropyrrolo[3,4-c]pyrazole-5(1H)-carboxamide] | ≤ 0.1 | ≤ 0.05 | ≥ 5 | ≥ 1
9 | CC1(C)c2[nH]nc(NC(=O)C3([Si](C)(C)C)CCC3)c2CN1C(=O)Nc1cccs1 [IV-1043, 6,6-Dimethyl-N-(thiophen-2-yl)-3-[1-(trimethylsilyl)cyclobutanecarboxamido]-4,6-dihydropyrrolo[3,4-c]pyrazole-5(1H)-carboxamide] | ≤ 0.1 | ≤ 0.05 | ≥ 5 | ≥ 1
